From patent publication US20150258101A1 (Proximagen Limited, priority 2014, published 2015)
Where a name gives a salt, the structure may show the parent alone.

Experiments:
[1] = biological target: T1, human ether a go-go related gene (hERG) K+ channel (Homo sapiens, UniProt Q12809); assay: hERG assay, IonWorks patch clamp electrophysiology; format: cell-based; conditions: Chinese Hamster Lung cell line stably expressing hERG; max assay concentration 11 uM
T1 construct: a Chinese Hamster Lung cell line stably expressing the full length hERG channel; expressed in transfected cells; host or cells: Chinese Hamster Lung cell line
T1 sequence (Q12809 whole entry): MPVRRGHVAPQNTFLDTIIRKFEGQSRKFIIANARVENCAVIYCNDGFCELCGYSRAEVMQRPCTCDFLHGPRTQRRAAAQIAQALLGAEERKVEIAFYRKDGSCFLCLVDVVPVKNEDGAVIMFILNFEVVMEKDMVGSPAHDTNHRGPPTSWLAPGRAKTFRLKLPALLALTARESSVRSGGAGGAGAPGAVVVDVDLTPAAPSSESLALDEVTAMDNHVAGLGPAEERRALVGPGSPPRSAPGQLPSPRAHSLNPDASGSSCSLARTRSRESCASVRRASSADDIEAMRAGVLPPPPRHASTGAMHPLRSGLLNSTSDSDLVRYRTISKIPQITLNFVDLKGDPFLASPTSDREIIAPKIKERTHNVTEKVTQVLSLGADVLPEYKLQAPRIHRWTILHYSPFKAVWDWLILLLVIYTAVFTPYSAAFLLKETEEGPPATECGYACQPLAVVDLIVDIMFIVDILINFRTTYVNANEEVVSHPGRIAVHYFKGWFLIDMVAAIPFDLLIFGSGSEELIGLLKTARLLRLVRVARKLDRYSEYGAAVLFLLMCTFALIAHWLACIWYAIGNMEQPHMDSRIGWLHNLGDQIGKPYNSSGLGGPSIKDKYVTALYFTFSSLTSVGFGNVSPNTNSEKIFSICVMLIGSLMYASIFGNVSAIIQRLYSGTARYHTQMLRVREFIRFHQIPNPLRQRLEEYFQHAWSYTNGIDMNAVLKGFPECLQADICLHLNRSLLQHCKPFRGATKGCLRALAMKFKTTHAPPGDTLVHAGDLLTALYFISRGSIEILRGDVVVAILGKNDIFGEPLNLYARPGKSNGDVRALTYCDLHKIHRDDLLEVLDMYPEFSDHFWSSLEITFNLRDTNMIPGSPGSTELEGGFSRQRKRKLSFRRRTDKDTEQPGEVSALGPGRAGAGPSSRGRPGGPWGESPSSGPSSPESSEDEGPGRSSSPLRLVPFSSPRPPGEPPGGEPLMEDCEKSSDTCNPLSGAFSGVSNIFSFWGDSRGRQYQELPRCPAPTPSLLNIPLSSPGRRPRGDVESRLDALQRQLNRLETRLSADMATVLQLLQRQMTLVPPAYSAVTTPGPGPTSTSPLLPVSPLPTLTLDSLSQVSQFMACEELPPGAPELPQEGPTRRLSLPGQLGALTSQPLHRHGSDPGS
Method: Compounds of the invention were tested for inhibition of the human ether a go-go related gene (hERG) K^+ channel using IonWorks patch clamp electrophysiology. 8 Point concentration-response curves were generated on two occasions using 3-fold serial dilutions from the maximum assay concentration (11 uM). Electrophysiological recordings were made from a Chinese Hamster Lung cell line stably expressing the full length hERG channel. Single cell ion currents were measured in the perforated patch clamp configuration (100 ug/mL amphoterocin) at room temperature using an IonWorks Quattro instrument. The internal solution contained 140 mM KCl, 1 mM MgCl2, 1 mM EGTA and 20 mM HEPES and was buffered to pH 7.3. The external solution contained 138 mM NaCl, 2.7 mM KCl, 0.9 mM CaCl2, 0.5 mM MgCl2, 8 mM Na2HPO4 and 1.5 mM KH2PO4, and was buffered to pH 7.3. […] This sequence was repeated 5 times at a frequency of 0.25 Hz. Currents were measured from the tail step at the 5th pulse, and referenced to the holding current. Compounds were incubated for 6-7 min prior to a second measurement of the hERG signal using an identical pulse train. […] A control compound (quinidine) was used (see Table 20 below).

[2] = biological target: T2, purified recombinantly expressed human SSAO (Homo sapiens, UniProt Q16853); assay: SSAO enzyme inhibition assay (benzylamine substrate; hydrogen peroxide/HRP-coupled or 14C aldehyde detection); format: biochemical; conditions: SSAO inhibitory activity, RT
T2 construct: made in house
T2 sequence (Q16853 1-763): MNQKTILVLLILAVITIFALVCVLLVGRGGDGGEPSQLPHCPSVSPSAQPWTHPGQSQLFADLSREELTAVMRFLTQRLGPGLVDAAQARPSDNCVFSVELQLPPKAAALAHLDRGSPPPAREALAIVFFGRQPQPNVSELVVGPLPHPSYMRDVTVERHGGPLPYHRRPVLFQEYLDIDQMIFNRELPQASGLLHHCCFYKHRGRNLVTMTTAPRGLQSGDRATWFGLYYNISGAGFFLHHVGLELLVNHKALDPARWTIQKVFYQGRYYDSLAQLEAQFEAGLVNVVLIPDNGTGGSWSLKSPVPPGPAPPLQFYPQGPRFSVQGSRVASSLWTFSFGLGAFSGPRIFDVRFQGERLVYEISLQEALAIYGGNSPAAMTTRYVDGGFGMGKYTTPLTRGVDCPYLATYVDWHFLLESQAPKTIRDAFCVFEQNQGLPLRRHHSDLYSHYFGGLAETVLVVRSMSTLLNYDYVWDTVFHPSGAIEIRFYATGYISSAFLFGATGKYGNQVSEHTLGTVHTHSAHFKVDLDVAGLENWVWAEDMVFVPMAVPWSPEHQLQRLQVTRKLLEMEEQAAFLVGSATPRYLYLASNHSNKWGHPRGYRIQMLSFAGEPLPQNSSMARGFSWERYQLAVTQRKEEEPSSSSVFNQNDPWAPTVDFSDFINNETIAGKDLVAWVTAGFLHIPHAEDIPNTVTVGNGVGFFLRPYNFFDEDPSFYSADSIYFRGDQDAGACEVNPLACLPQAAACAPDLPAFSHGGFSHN
Outline: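 IC50 values came from a four-parameter logistic fit of % signal decrease versus DMSO control, with no-enzyme background subtracted. Two read-outs were used with human recombinant SSAO after ~15 min compound pre-incubation at RT. In the H2O2/HRP-Amplex read-out, enzyme was 1 ug/ml and benzylamine 100 uM (pH 7.4 phosphate), with resorufin fluorescence followed 1-2 h. In the 14C-benzaldehyde read-out (PBS), enzyme was 10 ug/ml and benzylamine 40 uM, run 1 h then acid-stopped.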

| SMILES | IC50 [1] [nM] | IC50 [2] [nM] |
| --- | --- | --- |
| Clc1ccc(-n2c(-c3ccncc3)nc3ccncc32)cc1 [Example 2, 4-[3-(4-Chlorophenyl)-3H-imidazo[4,5-c]pyridin-2-yl] pyridine] | > 10000 | 200 to 1200 |
| Clc1ccc(-n2c(-c3ccc(CN4CCOCC4)nc3)nc3ccncc32)cc1 [Example 3, 4-({5-[3-(4-Chlorophenyl)-3H-imidazo[4,5-c]pyridin-2-yl]pyridin-2-yl}methyl) morpholine] | > 10000 | 50 to 200 |
| Clc1ccc(-n2c(-c3ccc(N4CCOCC4)nn3)nc3ccncc32)cc1 [Example 4, 4-{6-[3-(4-Chlorophenyl)-3H-imidazo[4,5-c]pyridin-2-yl]pyridazin-3-yl}morpholine] | 1000 to 10000 | < 50 |
| Clc1ccc(-n2c(-c3cnc(NC4CCOCC4)nc3)nc3ccncc32)cc1 [Example 11, 5-[3-(4-Chlorophenyl)-3H-imidazo[4,5-c]pyridin-2-yl]-N-(oxan-4-yl)pyrimidin-2-amine; bis(trifluoroacetic acid)] | > 10000 | < 50 |
| O=C1CN(c2ncc(-c3nc4ccncc4n3-c3ccc(F)cc3)cn2)CCN1 [Example 12, 4-{5-[3-(4-Fluorophenyl)-3H-imidazo[4,5-c]pyridin-2-yl]pyrimidin-2-yl}piperazin-2-one] | > 10000 | 50 to 200 |
| O=C1CN(c2ncc(-c3nc4ccncc4n3-c3ccc(Cl)cc3)cn2)CCN1 [Example 13, 4-{5-[3-(4-Chlorophenyl)-3H-imidazo[4,5-c]pyridin-2-yl]pyrimidin-2-yl}piperazin-2-one] | > 10000 | < 50 |
| Clc1ccc(-n2c(-c3cnc(N4CCNCC4)o3)nc3ccncc32)cc1 [Example 18, 1-{5-[3-(4-Chlorophenyl)-3H-imidazo[4,5-c]pyridin-2-yl]-1,3-oxazol-2-yl}piperazine dihydrochloride] | > 10000 | 50 to 200 |
| Fc1ccc(-n2c(-c3cnc(NC4CCOCC4)nc3)nc3ccncc32)cc1 [Example 20, 5-[3-(4-Fluorophenyl)-3H-imidazo[4,5-c]pyridin-2-yl]-N-(oxan-4-yl)pyrimidin-2-amine] | > 10000 | 50 to 200 |
| Cc1cc(N2CCOCC2)ncc1-c1nc2ccncc2n1-c1ccc(F)cc1 [Example 21, 4-{5-[3-(4-Fluorophenyl)-3H-imidazo[4,5-c]pyridin-2-yl]-4-methylpyridin-2-yl}morpholine] | > 10000 | < 50 |
| C[C@@H]1CN(c2ncc(-c3nc4ccncc4n3-c3ccc(F)cc3)cn2)C[C@H](C)O1 [Example 23, (2R,6S)-4-{5-[3-(4-Fluorophenyl)-3H-imidazo [4,5-c]pyridin-2-yl]pyrimidin-2-yl}-2,6-dimethylmorpholine] | > 10000 | < 50 |
| CC1(C)CN(c2ncc(-c3nc4ccncc4n3-c3ccc(F)cc3)cn2)CCO1 [Example 24, 4-{5-[3-(4-Fluorophenyl)-3H-imidazo[4,5-c]pyridin-2-yl]pyrimidin-2-yl}-2,2-dimethylmorpholine] | > 10000 | < 50 |
| CN1CCN(Cc2ccc(-c3nc4ccncc4n3-c3ccc(Cl)cc3)cc2)CC1 [Example 46, 1-({4-[3-(4-Chlorophenyl)-3H-imidazo[4,5-c]pyridin-2-yl]phenyl}methyl)-4-methylpiperazine; formic acid] | > 10000 | < 50 |
| Clc1ccc(-n2c(-c3ccc(N4CCOCC4)nc3)nc3ccncc32)cc1 [Example 47, 4-{5-[3-(4-Chlorophenyl)-3H-imidazo[4,5-c]pyridin-2-yl]pyridin-2-yl}morpholine] | 1000 to 10000 | < 50 |
| Clc1ccc(-n2c(-c3ccc(N4CCNCC4)nc3)nc3ccncc32)cc1 [Example 50, 1-{5-[3-(4-Chlorophenyl)-3H-imidazo[4,5-c]pyridin-2-yl]pyridin-2-yl}piperazine] | > 10000 | < 50 |
| c1ccc(-n2c(-c3cnc(N4CCOCC4)nc3)cc3ccncc32)cc1 [Example 131, 4-(5-{1-Phenyl-1H-pyrrolo[2,3-c]pyridin-2-yl}pyrimidin-2-yl)morpholine] | 1000 to 10000 |  |
| Cn1nccc1-c1cc2ccncc2n1-c1ccc(Cl)cc1 [Example 134, 5-[1-(4-Chlorophenyl)-1H-pyrrolo[2,3-c]pyridin-2-yl]-1-methyl-1H-pyrazole] |  | < 50 |
| Cn1cc(-c2cc3ccncc3n2-c2ccc(Cl)cc2)cn1 [Example 135, 4-[1-(4-Chlorophenyl)-1H-pyrrolo[2,3-c]pyridin-2-yl]-1-methyl-1H-pyrazole] |  | < 50 |
| Cn1cncc1-c1cc2ccncc2n1-c1ccc(Cl)cc1 [Example 136, 5-[1-(4-Chlorophenyl)-1H-pyrrolo[2,3-c]pyridin-2-yl]-1-methyl-1H-imidazole] |  | < 50 |
| CN(C)c1ncc(-c2cc3ccncc3n2-c2ccc(Cl)cc2)cn1 [Example 137, 5-[1-(4-Chlorophenyl)-1H-pyrrolo[2,3-c]pyridin-2-yl]-N,N-dimethylpyrimidin-2-amine; bis(trifluoroacetic acid)] |  | < 50 |
| Cc1cc(N)ncc1-c1cc2ccncc2n1-c1ccc(Cl)cc1 [Example 141, 5-[1-(4-Chlorophenyl)-1H-pyrrolo[2,3-c]pyridin-2-yl]-4-methylpyridin-2-amine; bis(trifluoroacetic acid)] |  | 50 to 200 |
| Cn1ccc(-c2cc3ccncc3n2-c2ccc(Cl)cc2)cc1=O [Example 143, 4-[1-(4-Chlorophenyl)-1H-pyrrolo[2,3-c]pyridin-2-yl]-1-methyl-1,2-dihydropyridin-2-one] |  | < 50 |
| CCn1ccc(-c2cc3ccncc3n2-c2ccc(Cl)cc2)cc1=O [Example 144, 4-[1-(4-Chlorophenyl)-1H-pyrrolo[2,3-c]pyridin-2-yl]-1-ethyl-1,2-dihydropyridin-2-one] |  | 50 to 200 |
| Cn1c(-c2cc3ccncc3n2-c2ccc(Cl)cc2)cccc1=O [Example 145, 6-[1-(4-Chlorophenyl)-1H-pyrrolo[2,3-c]pyridin-2-yl]-1-methyl-1,2-dihydropyridin-2-one] |  | < 50 |
| O=c1cc(-c2cc3ccncc3n2-c2ccc(Cl)cc2)cn[nH]1 [Example 146, 5-[1-(4-Chlorophenyl)-1H-pyrrolo[2,3-c]pyridin-2-yl]-2,3-dihydropyridazin-3-one] |  | 50 to 200 |
| Fc1cncc(-c2cc3ccncc3n2-c2ccc(Cl)cc2)c1 [Example 148, 3-[1-(4-Chlorophenyl)-1H-pyrrolo[2,3-c]pyridin-2-yl]-5-fluoropyridine] |  | < 50 |
| Clc1ccc(-n2c(-c3cnc(NCC4CC4)nc3)cc3ccncc32)cc1 [Example 149, 5-[1-(4-Chlorophenyl)-1H-pyrrolo[2,3-c]pyridin-2-yl]-N-(cyclopropylmethyl)pyrimidin-2-amine] |  | < 50 |
| Clc1ccc(-n2c(-c3cncc(Cl)c3)cc3ccncc32)cc1 [Example 150, 3-Chloro-5-[1-(4-chlorophenyl)-1H-pyrrolo[2,3-c]pyridin-2-yl]pyridine] |  | 50 to 200 |
| Clc1ccc(-n2c(-c3ccc(-n4cccn4)nc3)cc3ccncc32)cc1 [Example 151, 5-[1-(4-Chlorophenyl)-1H-pyrrolo[2,3-c]pyridin-2-yl]-2-(1H-pyrazol-1-yl)pyridine; bis(trifluoroacetic acid)] |  | 50 to 200 |
| Cc1cnccc1-c1cc2ccncc2n1-c1ccc(Cl)cc1 [Example 154, 4-[1-(4-Chlorophenyl)-1H-pyrrolo[2,3-c]pyridin-2-yl]-3-methylpyridine] |  | < 50 |
| O=c1cc(-c2cc3ccncc3n2-c2ccccc2)ccn1C1CC1 [Example 155, 1-Cyclopropyl-4-{1-phenyl-1H-pyrrolo[2,3-c]pyridin-2-yl}-1,2-dihydropyridin-2-one] |  | 200 to 1200 |
